Target: Prostaglandin G/H synthase 1 (Homo sapiens, UniProt P23219)
Sequence (P23219 whole entry): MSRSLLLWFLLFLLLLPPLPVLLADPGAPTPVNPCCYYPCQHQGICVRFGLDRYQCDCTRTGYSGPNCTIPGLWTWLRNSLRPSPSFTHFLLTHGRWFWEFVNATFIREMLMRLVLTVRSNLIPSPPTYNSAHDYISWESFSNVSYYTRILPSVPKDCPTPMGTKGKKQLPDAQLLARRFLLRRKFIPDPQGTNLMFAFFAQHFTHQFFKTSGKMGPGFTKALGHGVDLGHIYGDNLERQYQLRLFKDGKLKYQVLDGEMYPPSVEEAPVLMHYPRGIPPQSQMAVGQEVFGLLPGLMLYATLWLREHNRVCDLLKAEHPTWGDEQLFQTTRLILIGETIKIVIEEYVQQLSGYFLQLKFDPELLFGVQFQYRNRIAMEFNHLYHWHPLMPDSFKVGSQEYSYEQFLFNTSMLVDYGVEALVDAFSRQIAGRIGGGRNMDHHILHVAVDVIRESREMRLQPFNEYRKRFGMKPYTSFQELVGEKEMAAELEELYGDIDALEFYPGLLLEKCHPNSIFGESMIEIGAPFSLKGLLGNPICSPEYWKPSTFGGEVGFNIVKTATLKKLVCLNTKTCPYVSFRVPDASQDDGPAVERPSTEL

Ki: > 10 µM
SMILES: Cc1ccc(-c2ncc(Cl)cc2-c2ccc(S(C)(=O)=O)cc2)cn1

— BindingDB's records for doi:10.1016/S0002-8703(03)00398-3 (University of Maryland Hospital, 2003)
